Data taken from paper PMC9465178, “Cinnamaldehyde derivatives act as antimicrobial agents against Acinetobacter baumannii through the inhibition of cell division” (Frontiers in Microbiology, 2022).
In brackets after ≈: the same amount, converted by molar mass.

Assays:
E. coli ATCC 25922 = system: E. coli ATCC 25922; parameters: method as in Li et al., 2015a,b; conditions: ref Li et al., 2015a,b; cited from earlier work
AbFtsZ = AbFtsZ polymerization, 90° light scattering; assay type: biochemical, Acinetobacter baumannii; conditions: test compound at 128 μg/mL, AbFtsZ 0.15 mg/mL, 1 mM GTP, 8°C
Description: Effects on inhibition of the cinnamaldehyde derivatives on AbFtsZ polymerization were analyzed using the assay as previously described ([Chai et al., 2020]) with the following modifications. A reaction mix was prepared in a cold Eppendorf® tube where AbFtsZ (0.15 mg/mL) was mixed with the test compound at the desired concentration and a polymerization buffer diluted from a double strength buffer to give a final concentration of 25 mM PIPES pH 6.8, 50 mM KCl and 10 mM MgCl2. The reaction mix was prepared such that the DMSO concentration remained constant at 2% (v/v). The mix was then added into a quartz cuvette (PerkinElmer®, United Kingdom), and placed in a PerkinElmer® LS 55 fluorometer under the fixed condition of excitation/emission at 350/350 nm, slit width < 2 nm, a 1 s read interval. The temperature was calibrated to remain constant at 8°C. The fluorescence was followed for 300 sec to allow equilibration, then polymerization was initiated with the addition of 1 mM GTP. A separate negative control was prepared where 1 mM GDP was added instead of the GTP. The reaction was followed for 600 s.
(A–F) AbFtsZ (0.15 mg/mL) was pre-incubated in polymerization buffer (25 mM PIPES pH 6.8, 50 mM KCl and 10 mM MgCl2) together with the test compound at 128 μg/mL for 300 s. Polymerization was then initiated with the addition of 1 mM GTP. The fluorescence was measured as a function of time at excitation and emission wavelengths of A350 and A350 nm, respectively, and a slit width of <2 nm. The blue line in each panel indicates the addition of 2.5% (v/v) DMSO, the pink line indicates the test compound tested at 128 μg/mL and the gray line represents the addition of 1 mM GDP (as negative control) instead of GTP.

[1] = system: Pseudomonas aeruginosa ATCC 27853; parameters: method as in Li et al., 2015a,b; conditions: ref Li et al., 2015a,b; cited from earlier work
human red blood cells = experiment: Hemolysis assay; assay type: cell-based; conditions: fresh human RBCs, 1 h, 37°C, concentrations up to 4 × MIC (concentration in the value words)
Description: The hemolysis assay was performed using fresh human red blood cells (RBCs). […] These were performed in quadruplicate. Thereafter, 192 μL RBCs were added into all wells and the plates were incubated at 37°C under constant shaking (100 rpm) for 1 h. RBCs were precipitated by centrifugation of the plates (1,000× g for 3 min). An aliquot (100 μL) of each supernatant was transferred into a new 96-microwell plate and the A450 nm was determined using a PerkinElmer Enspire® plate reader. The fraction of intact RBC for each sample was determined as fraction of the intact RBCs for the sample without the addition of compounds (set at 100%) and plotted as a function of compound concentration.
A 1% (v/v) Triton X-100 was used to indicate complete RBC lysis (^‡). […] The assays were performed in quadruplicates. The plates were incubated at 37°C while constantly shaking at 100 rpm for 1 h. Intact RBCs were removed by centrifugation and the presence of hemolytic products in the supernatant were determined by measuring the absorbance at A450 nm. The results are presented in mean ± SEM. Statistical analysis was performed using one-way ANOVA and the asterisks (*) represent statistical significance (*p < 0.05; **p < 0.005; ***p < 0.0005; ****p < 0.0001).

| SMILES | MIC (E. coli ATCC 25922) [µg/mL] | Inhibition of AbFtsZ polymerization (AbFtsZ) | MIC [1] [µg/mL] | Hemolytic activity (human red blood cells) |
| --- | --- | --- | --- | --- |
| Cc1nc2ccccc2n1C(=O)/C=C/c1ccccc1 [Compound 1] | 128 (≈ 488 µM) | strongest activity observed with compound 5, followed by compounds 1 and 6 | 128 (≈ 488 µM) | – |
| COc1ccc(/C=C/C(=O)n2c(C)nc3ccccc32)cc1OC [Compound 5] | – | strongest activity | – | only non-lytic at a low concentration (0.25 × MIC, Figure 9E) |
| Cc1nc2ccccc2n1C(=O)/C=C/c1ccc(Br)cc1 [Compound 4] | – | – | – | devoid of hemolytic activity even at the highest concentration tested (4 × MIC, Figure 9D) |
| Cc1nc2ccccc2n1C(=O)/C=C/c1ccc(Cl)cc1Cl [Compound 6] | – | strongest activity observed with compound 5, followed by compounds 1 and 6 | – | – |
